According to patent US20220256854A1, “PLANT TREATMENT COMPOSITION” (Croda International Plc, priority 2019, published 2022):

Key:
Assay type in all cases: in vivo
[1] = tested on: individual grass and broadleaf weed species; assay: Field trial, glufosinate with Formulation A, weed control, average over five weed species (Example 4); details: Formulation A @ 1 l/ha where applied, average of five weed species
Experimental: (§1) A study was conducted to evaluate the effect of an Mn formulation on glufosinate efficacy, as measured by the control of individual grass and broadleaf weed species.
(§2) The trial was designed as a randomized complete block with three replications of four treatments (Table 9). The trial was planted at one location in Brazil during March 2016. Weed control was assessed 7, 14, and 28 daa.

Brachiaria decumbens [2] = assay: Glufosinate absorption in Brachiaria decumbens with Mn formulations (Example 1, Study 1); details: glufosinate 2 l/ha; Mn formulation at 100 g/ha Mn where applied; 36 hours after application
Experimental: (§3) Studies were conducted to evaluate the effect of an Mn formulation containing manganese on the absorption of glufosinate (Study 1) and glyphosate (Study 2) using Brachiaria decumbens as a model weed species.
Study 1. Seed of Brachiaria decumbens were planted into pots in a greenhouse during January 2015. This experiment was designed as a randomized complete block with six replications. Each plant was sprayed in a spray chamber with one of six treatments (Table 1) 19 days after planting.
The amount of glufosinate on the plant surface (not absorbed) and that penetrated plant tissue (absorbed) was measured 36 hours after application of a treatment using chromatography and spectrometry.

Ipomoea acuminate [3] = assay: Field trial, glufosinate with Formulation A, weed control (Example 4); details: Formulation A @ 1 l/ha where applied, mean of 7, 14, 28 daa
Experimental: as §1, §2

Cenchrus echinatus [4] = assay: as above; details: Formulation A @ 1 l/ha where applied, mean of 7, 14, 28 daa
Experimental: as §1, §2

Digitaria horizontalis [5] = assay: as above; details: Formulation A @ 1 l/ha where applied, mean of 7, 14, 28 daa
Experimental: as §1, §2

Brachiaria decumbens [6] = assay: as above; details: Formulation A @ 1 l/ha where applied, mean of 7, 14, 28 daa
Experimental: as §1, §2

Brachiaria plantaginea [7] = assay: as above; details: Formulation A @ 1 l/ha where applied, mean of 7, 14, 28 daa
Experimental: as §1, §2

weed species [8] = assay: Field trial, glyphosate with K formulation, weed control (Example 5, Study 2); details: Glyphosate @ 2 l/ha, Formulation @ 5 l/ha where applied
Experimental: (§4) Three studies were conducted to evaluate the effect of a K formulation on glyphosate efficacy, as measured by the control of weed species.
Study 2. The trial was designed as a randomized complete block with two replications of six treatments (Table 13). The trial was planted at one location in Brazil during 2011. Weed control was assessed 14 and 25 daa.

Grass weeds = assay: Field trial, glyphosate with Mn formulation, control of grass weeds (Example 2); details: glyphosate 1 l/ha; V2 soybean growth stage; 7 daa; six locations in Brazil
Experimental: (§5) A study was carried out to evaluate the effect of an Mn formulation on the efficacy of glyphosate, as measured by the control of broadleaf and grass weed species.
(§6) The trial was designed as a randomized complete block with six replications of five treatments (Table 5). The trial was planted at each of six locations in Brazil during the 2015 season. All treatments were applied at the V2 soybean growth stage using backpack sprayers. Soybeans were sown at a rate consistent with locally recommended practices into plots that were approximately 4 m long and 5 m wide.
(§7) Data collected from a 1 m^2 area of each plot included the number of broadleaf and grass weeds, by genus and species, at the V2 soybean growth stage immediately prior to treatment application. The number of dead/damaged and undamaged weeds, by genus and species, was collected from the same 1 m^2 area of each plot 7 daa of a treatment. Treatment 2 (glyphosate alone) was used as the control.

weed species [9] = assay: Field trial, glyphosate with K formulation, weed control (Example 5, Study 1); details: Glyphosate @ 2 l/ha, no formulation
Experimental: as §4
Study 1. The trial was designed as a randomized complete block with two replications of five treatments (Table 11). The trial was planted at one location in Brazil during 2011. Weed control was assessed 14 and 25 daa.

Ipomoea acuminate [10] = assay: Field trial, glyphosate with Formulation A, weed control (Example 3); details: Formulation A @ 1 l/ha where applied, mean of 7, 14, 28 daa
Experimental: (§8) A study was conducted to evaluate the effect of an Mn formulation on glyphosate efficacy, as measured by the control of individual grass and broadleaf weed species.
(§9) The trial was designed as a randomized complete block with three replications of four treatments (Table 7). The trial was planted at one location in Brazil during March 2016. Weed control was assessed 7, 14, and 28 daa.

Cenchrus echinatus [11] = assay: as above; details: Formulation A @ 1 l/ha where applied, mean of 7, 14, 28 daa
Experimental: as §8, §9

Digitaria horizontalis [12] = assay: as above; details: Formulation A @ 1 l/ha where applied, mean of 7, 14, 28 daa
Experimental: as §8, §9

Amaranthus retroflexus = assay: as above; details: Formulation A @ 1 l/ha where applied, mean of 7, 14, 28 daa
Experimental: as §8, §9

Brachiaria decumbens [13] = assay: as above; details: Formulation A @ 1 l/ha where applied, mean of 7, 14, 28 daa
Experimental: as §8, §9

Brachiaria plantaginea [14] = assay: as above; details: Formulation A @ 1 l/ha where applied, mean of 7, 14, 28 daa
Experimental: as §8, §9

Euphorbia heterophylla = assay: as above; details: Formulation A @ 1 l/ha where applied, mean of 7, 14, 28 daa
Experimental: as §8, §9

Brachiaria decumbens [15] = assay: Glyphosate absorption in Brachiaria decumbens with Mn formulations (Example 1, Study 2); details: glyphosate 3.5 l/ha; Mn formulation at 100 g/ha Mn where applied; four days after application
Experimental: as §3
Study 2. Seed of Brachiaria decumbens were planted into pots in a greenhouse during January 2015. This experiment was designed as a randomized complete block with six replications. Each plant was sprayed in a spray chamber with one of six treatments (Table 3) 25 days after planting.
The amount of glyphosate on the plant surface (not absorbed) and that penetrated plant tissue (absorbed) was measured four days after application (daa) of a treatment using chromatography and spectrometry.

Broadleaf weeds = assay: Field trial, glyphosate with Mn formulation, control of broadleaf weeds (Example 2); details: glyphosate 1 l/ha; V2 soybean growth stage; 7 daa; six locations in Brazil
Experimental: as §5, §6, §7

weed species [16] = assay: Field trial, glyphosate with K formulation, weed control (Example 5, Study 3); details: Glyphosate @ 2 l/ha, Formulation @ 5 l/ha where applied
Experimental: as §4
Study 3. The trial was designed as a randomized complete block with two replications of six treatments (Table 15). The trial was planted at one location in Brazil during 2011. Weed control was assessed 14 and 25 daa.

[17] = tested on: individual grass and broadleaf weed species; assay: Field trial, glyphosate with Formulation A, weed control, average over seven weed species (Example 3); details: Formulation A @ 1 l/ha where applied, average of seven weed species
Experimental: as §8, §9

CP(=O)(O)CCC(N)C(=O)O (centres unmarked) [Glufosinate, glufosinate]
Weed control (%) Ave ([1]; Glufosinate @ 1.5 l/ha): 78.9% | Weed control (%) Ave ([1]; Glufosinate @ 2.5 l/ha): 88.2% | Glufosinate Absorbed (%) (Brachiaria decumbens [2]): 24.0% | Weed control (%) IPOAC (Ipomoea acuminate [3]; Glufosinate @ 1.5 l/ha): 96.7% | Weed control (%) IPOAC (Ipomoea acuminate [3]; Glufosinate @ 2.5 l/ha): 100.0% | Weed control (%) CCHEC (Cenchrus echinatus [4]; Glufosinate @ 1.5 l/ha): 62.8% | Weed control (%) CCHEC (Cenchrus echinatus [4]; Glufosinate @ 2.5 l/ha): 78.7% | Weed control (%) DIGHO (Digitaria horizontalis [5]; Glufosinate @ 1.5 l/ha): 67.0% | Weed control (%) DIGHO (Digitaria horizontalis [5]; Glufosinate @ 2.5 l/ha): 82.9% | Weed control (%) BRADC (Brachiaria decumbens [6]; Glufosinate @ 1.5 l/ha): 89.3% | Weed control (%) BRADC (Brachiaria decumbens [6]; Glufosinate @ 2.5 l/ha): 91.1% | Weed control (%) BRAPL (Brachiaria plantaginea [7]; Glufosinate @ 1.5 l/ha): 78.6% | Weed control (%) BRAPL (Brachiaria plantaginea [7]; Glufosinate @ 2.5 l/ha): 88.2%

O=C(O)CNCP(=O)(O)O [Glyphosate, glyphosate]
Weed control (%) 14 daa (weed species [8]; 14 daa): 82.5% | Weed control (%) 25 daa (weed species [8]; 25 daa): 96.5% | Weed control (%) Grass weeds (Grass weeds): 97.7% | Weed control (%) 14 daa (weed species [9]; 14 daa): 85% | Weed control (%) 25 daa (weed species [9]; 25 daa): 96.5% | Weed control (%) IPOA (Ipomoea acuminate [10]; Glyphosate @ 1 l/ha): 34.8% | Weed control (%) IPOA (Ipomoea acuminate [10]; Glyphosate @ 2 l/ha): 52.6% | Weed control (%) CCHEC (Cenchrus echinatus [11]; Glyphosate @ 1 l/ha): 95.0% | Weed control (%) CCHEC (Cenchrus echinatus [11]; Glyphosate @ 2 l/ha): 98.7% | Weed control (%) DIGHO (Digitaria horizontalis [12]; Glyphosate @ 1 l/ha): 96.3% | Weed control (%) DIGHO (Digitaria horizontalis [12]; Glyphosate @ 2 l/ha): 99.0% | Weed control (%) AMARE (Amaranthus retroflexus; Glyphosate @ 1 l/ha): 69.6% | Weed control (%) AMARE (Amaranthus retroflexus; Glyphosate @ 2 l/ha): 84.7% | Weed control (%) BRADC (Brachiaria decumbens [13]; Glyphosate @ 1 l/ha): 83.0% | Weed control (%) BRADC (Brachiaria decumbens [13]; Glyphosate @ 2 l/ha): 90.2% | Weed control (%) BRAPL (Brachiaria plantaginea [14]; Glyphosate @ 1 l/ha): 91.2% | Weed control (%) BRAPL (Brachiaria plantaginea [14]; Glyphosate @ 2 l/ha): 95.9% | Weed control (%) EPHHL (Euphorbia heterophylla; Glyphosate @ 1 l/ha): 65.4% | Weed control (%) EPHHL (Euphorbia heterophylla; Glyphosate @ 2 l/ha): 77.4% | Glyphosate Absorbed (%) (Brachiaria decumbens [15]): 21.0% | Weed control (%) Broadleaf weeds (Broadleaf weeds): 83.8% | Weed control (%) 14 daa (weed species [16]; 14 daa): 85% | Weed control (%) 25 daa (weed species [16]; 25 daa): 90% | Weed control (%) Ave ([17]; Glyphosate @ 1 l/ha): 76.5% | Weed control (%) Ave ([17]; Glyphosate @ 2 l/ha): 85.5%
